Patent US20250089707A1, “ECO-FRIENDLY QUARANTINE COMPOSITION HAVING FUNCTION OF KILLING PHOSPHOLIPID ENVELOPED VIRUS” (priority 2022, published 2025)

How the values were obtained:
[1] = tested on: Salmonella typhimurium; test: Antibacterial activity, paper disc method
[2] = tested on: human bronchial epithelial cells (BEAS-2B); test: Cytotoxicity, MTT, BEAS-2B; conditions: 24 hours treatment
[3] = tested on: Pseudomonas aeruginosa; test: Antibacterial activity, paper disc method
[4] = tested on: Escherichia coli; test: Antibacterial activity, paper disc method
[5] = tested on: Bacillus subtilis; test: Antibacterial activity, paper disc method
[6] = tested on: Staphylococcus aureus; test: Antibacterial activity, paper disc method
[7] = tested on: Streptococcus mutans; test: Antibacterial activity, paper disc method
[8] = tested on: human monocyte cells (THP-1); test: Cytotoxicity, MTT, THP-1; conditions: THP-1, 24 hours treatment
[9] = tested on: Staphylococcus epidermidis; test: Antibacterial activity, paper disc method
[10] = tested on: human epithelial keratinocyte cells (HaCaT); test: Cytotoxicity, MTT, HaCaT; conditions: 24 hours treatment

CCCCCCCCCCCCCCCCCC(=O)[O-].[Na+] [Example P-3, Sodium stearate]
MIC [1]: ≥100 μg/50 μl | IC50 value (%) [2]: 0.00969% | MIC [3]: ≥100 μg/50 μl | MIC [4]: ≥100 μg/50 μl | MIC [5]: ≥100 μg/50 μl | MIC [6]: ≥100 μg/50 μl | MIC [7]: ≥100 μg/50 μl | IC50 value (%) [8]: 0.4165% | MIC [9]: ≥100 μg/50 μl | IC50 value (%) [10]: 0.005292%
